Reference: patent US9212178B2, “Substituted pyrimidine compounds and their use as SYK inhibitors” (Genosco, priority 2013, dated 2015)
Read-outs that look alike come from different tables or passages of the source.

Key:
THP-1 cells = test: SYK-dependent TNF-α release assay (IgG stimulation), ELISA; type: cell-based; details: THP-1 cells on human IgG-coated plate, 18 hours; read-out: TNF-α release inhibition, IgG stimulation IC50
Protocol: In order to address cellular potency of Compounds of Formula (I), TNF-a production was measured on treatment of a series of concentration of SYK inhibitor in THP-1 cells.
For SYK-dependent TNF-α release assay (i.e., via IgG stimulation), THP-1 cells derived from human monocytic cells were obtained from the American Type Culture Collection (ATCC, Manassas, Va.). This cell line was maintained with a Roswell Park Memorial Institute (RPMI) medium (GIBCO) containing 10% fetal bovine serum (FBS; GIBCO) and 0.05 mM solution of 2-mercaptoethanol. The THP-1 cells were seeded at 1×10^5 cells/100 μL/well into human IgG (10 ng/well, INVITROGEN)-coated 96 well culture plate, and serially diluted compound was then added. After an 18 hours of incubation period at 37° C., supernatants were collected for the determination of the TNF-α level by enzyme-linked immunosorbent assay (ELISA), and the remaining cells were subjected to an MTT (yellow tetrazolium salt) assay to determine the cytotoxic effects of the compound. The IC50 value of the test compound was calculated at Gradpad Prism 5 unless otherwise specified.

full-length human SYK = full-length human SYK (Homo sapiens (Human), UniProt P43405); test: Inhibition of enzymatic SYK kinase activity (LANCE Ulight TK peptide); type: biochemical
Protocol: Compounds of the present invention were assayed to measure their capacity to inhibit a spleen tyrosine kinase (SYK).
Compounds of the invention were initially diluted to 10 mM in 100% DMSO (CALBIOCHEM™) for storage and made into kinase buffer solution to create a compound concentration ranging from 1 uM and 10 uM. Serial dilutions of compounds of the invention were dispensed into a 96-well plate (GREINER BIOSCIENCES™) at 6 μL each. Purified full-length human SYK (CARNA BIOSCIENCES™) were diluted in kinase buffer and added to the compound solutions and pre-incubated for 30 minutes at room temperature. […] The reaction mixture was incubated for 1 hour. Following the incubation, the stop solution made with EDTA, water, and Lance detection buffer ([…]™) was added (12 μL each) to stop phosphorylation.

[1] = ATP at Km (15 uM), 30 min pre-incubation

| Compound | IC50 (THP-1 cells) | IC50 (full-length human SYK) | IC50 (full-length human SYK; [1]) |
| --- | --- | --- | --- |
| CCn1cc(C(=O)C2CC2)c2cc(Nc3nccc(-n4cc(C)c(CN5C[C@H](O)CO5)c4)n3)ccc21 [Compound 29, (S)-cyclopropyl(1-ethyl-5-(4-(3-((4-hydroxyisoxazolidin-2-yl)methyl)-4-methyl-1H-pyrrol-1-yl)pyrimidin-2-ylamino)-1H-indol-3-yl)methanone] | 70 nM | 69.5 nM |  |
| Cc1nn(-c2ccnc(Nc3ccc4[nH]cc(C(=O)C(F)(F)F)c4c3)n2)cc1CN1C[C@H](O)CO1 [Compound 7, (S)-2,2,2-trifluoro-1-(5-(4-(4-((4-hydroxyisoxazolidin-2-yl)methyl)-3-methyl-1H-pyrazol-1-yl)pyrimidin-2-ylamino)-1H-indol-3-yl)ethanone] | 60 nM |  | 8.28 nM |
| Cc1nn(-c2ccnc(Nc3ccc4[nH]cc(C(=O)C5CC5)c4c3)n2)cc1CN1C[C@H](O)CO1 [Compound 12, (S)-cyclopropyl(5-(4-(4-((4-hydroxyisoxazolidin-2-yl)methyl)-3-methyl-1H-pyrazol-1-yl)pyrimidin-2-ylamino)-1H-indol-3-yl)methanone] | 120 nM |  | 13.5 nM |
| Cc1nn(-c2ccnc(Nc3ccc4c(c3)c(C(=O)C3CC3)cn4CCF)n2)cc1CN1C[C@H](O)CO1 [Compound 23, (S)-cyclopropyl(1-(2-fluoroethyl)-5-(4-(4-((4-hydroxyisoxazolidin-2-yl)methyl)-3-methyl-1H-pyrazol-1-yl)pyrimidin-2-ylamino)-1H-indol-3-yl)methanone] | 111 nM |  | 3.71 nM |
| O=C(c1cn(CC(F)F)c2ccc(Nc3nccc(-n4cc(CN5C[C@H](O)CO5)cn4)n3)cc12)C1CC1 [Compound 33, (S)-cyclopropyl(1-(2,2-difluoroethyl)-5-(4-(4-((4-hydroxyisoxazolidin-2-yl)methyl)-1H-pyrazol-1-yl)pyrimidin-2-ylamino)-1H-indol-3-yl)methanone] | 60 nM |  | 5.34 nM |
| (S)-cyclopropyl(1-ethyl-5-(5-fluoro-4-(3-((4-hydroxyisoxazolidin-2-yl)methyl)-4-methyl-1H-pyrrol-1-yl)pyrimidin-2-ylamino)-1H-indol-3-yl)methanone [Compound 21] |  |  | 230 nM |
| CCn1cc(C(=O)C2CC2)c2cc(Nc3ncc(C)c(-n4cc(CN5C[C@H](O)CO5)c(C)n4)n3)ccc21 [Compound 22, (S)-cyclopropyl(1-ethyl-5-(4-(4-((4-hydroxyisoxazolidin-2-yl)methyl)-3-methyl-1H-pyrazol-1-yl)-5-methylpyrimidin-2-ylamino)-1H-indol-3-yl)methanone] |  |  | 79.3 nM |
| cyclopropyl(1-(2-fluoroethyl)-5-(4-(4-(((S)-4-hydroxyisoxazolidin-2-yl)methyl)-3-methyl-1H-pyrazol-1-yl)pyrimidin-2-ylamino)indolin-3-yl)methanone [Compound 24] | 47 nM |  | 3.1 nM |
| CCn1cc(C(=O)C2CC2)c2cc(Nc3nccc(-n4cc(CN5CC(C)(O)CO5)c(C)n4)n3)ccc21 (stereo not shown) [Compound 13, cyclopropyl(1-ethyl-5-(4-(4-((4-hydroxy-4-methylisoxazolidin-2-yl)methyl)-3-methyl-1H-pyrazol-1-yl)pyrimidin-2-ylamino)-1H-indol-3-yl)methanone] | 273 nM |  | 17.3 nM |
| Cc1nn(-c2nc(Nc3ccc4c(c3)c(C(=O)C(F)(F)F)cn4C)ncc2Cl)cc1CN1C[C@H](O)CO1 [Compound 17, (S)-1-(5-(5-chloro-4-(4-((4-hydroxyisoxazolidin-2-yl)methyl)-3-methyl-1H-pyrazol-1-yl)pyrimidin-2-ylamino)-1-methyl-1H-indol-3-yl)-2,2,2-trifluoroethanone] |  |  | 132 nM |
| Cc1nn(-c2ccnc(Nc3ccc4c(c3)c(C(=O)C3CC3)cn4S(C)(=O)=O)n2)cc1CN1C[C@H](O)CO1 [Compound 27, (S)-cyclopropyl(5-(4-(4-((4-hydroxyisoxazolidin-2-yl)methyl)-3-methyl-1H-pyrazol-1-yl)pyrimidin-2-ylamino)-1-(methylsulfonyl)-1H-indol-3-yl)methanone] | 43 nM |  | 5.89 nM |
| Cc1nn(-c2ccnc(Nc3ccc4c(c3)c(C(=O)C(F)(F)F)cn4C)n2)cc1CN1C[C@H](O)CO1 [Compound 3, (S)-2,2,2-trifluoro-1-(5-(4-(4-((4-hydroxyisoxazolidin-2-yl)methyl)-3-methyl-1H-pyrazol-1-yl)pyrimidin-2-ylamino)-1-methyl-1H-indol-3-yl)ethanone] | 48 nM |  | 2.82 nM |
| CCOC(=O)n1cc(C(C)=O)c2cc(Nc3nccc(-n4cc(CN5C[C@H](O)CO5)c(C)n4)n3)ccc21 [Compound 5, (S)-ethyl 3-acetyl-5-(4-(4-((4-hydroxyisoxazolidin-2-yl)methyl)-3-methyl-1H-pyrazol-1-yl)pyrimidin-2-ylamino)-1H-indole-1-carboxylate] | 293 nM |  |  |
| O=C(c1cn(CCF)c2ccc(Nc3nccc(-n4cc(CN5C[C@H](O)CO5)cn4)n3)cc12)C1CC1 [Compound 32, (S)-cyclopropyl(1-(2-fluoroethyl)-5-(4-(4-((4-hydroxyisoxazolidin-2-yl)methyl)-1H-pyrazol-1-yl)pyrimidin-2-ylamino)-1H-indol-3-yl)methanone] | 53 nM |  | 3.52 nM |
| Cc1nn(-c2ccnc(Nc3ccc4c(c3)c(C(=O)C(C)C)cn4C)n2)cc1CN1C[C@H](O)CO1 [Compound 2, (S)-1-(5-(4-(4-((4-hydroxyisoxazolidin-2-yl)methyl)-3-methyl-1H-pyrazol-1-yl)pyrimidin-2-ylamino)-1-methyl-1H-indol-3-yl)-2-methylpropan-1-one] | 67 nM |  | 8.63 nM |
| Cc1nn(-c2ccnc(Nc3ccc4c(c3)c(Cl)c(C)n4C)n2)cc1CN1C[C@H](O)CO1 [Compound 31, (S)-2-((1-(2-(3-chloro-1,2-dimethyl-1H-indol-5-ylamino)pyrimidin-4-yl)-3-methyl-1H-pyrazol-4-yl)methyl)isoxazolidin-4-ol] | 197 nM |  |  |
| CCn1cc(C(=O)C2CC2)c2cc(Nc3ncc(F)c(-n4cc(CN5C[C@H](O)CO5)c(C)n4)n3)ccc21 [Compound 20, (S)-cyclopropyl(1-ethyl-5-(5-fluoro-4-(4-((4-hydroxyisoxazolidin-2-yl)methyl)-3-methyl-1H-pyrazol-1-yl)pyrimidin-2-ylamino)-1H-indol-3-yl)methanone] |  |  | 66.2 nM |
| Cc1nn(-c2ccnc(Nc3ccc4c(c3)c(C(=O)C3CC3)cn4C)n2)cc1CN1CC(C)(O)CCO1 (stereo not shown) [Compound 28] |  |  | 106 nM |
| Cc1cnc(Nc2ccc3c(c2)c(C(=O)C(F)(F)F)cn3C)nc1-n1cc(CN2C[C@H](O)CO2)c(C)n1 [Compound 18, (S)-2,2,2-trifluoro-1-(5-(4-(4-((4-hydroxyisoxazolidin-2-yl)methyl)-3-methyl-1H-pyrazol-1-yl)-5-methylpyrimidin-2-ylamino)-1-methyl-1H-indol-3-yl)ethanone] |  |  | 159 nM |
| Cc1nn(-c2ccnc(Nc3ccc4c(c3)c(C(=O)C(F)F)cn4C)n2)cc1CN1C[C@@H](O)CO1 [Compound 10, (R)-2,2-difluoro-1-(5-(4-(4-((4-hydroxyisoxazolidin-2-yl)methyl)-3-methyl-1H-pyrazol-1-yl)pyrimidin-2-ylamino)-1-methyl-1H-indol-3-yl)ethanone] |  |  | 24.4 nM |
